Patent US20260365990A1, “METHOD FOR THE PRESERVATION OF FUNCTIONAL GAMETES” (Julius-Maximilians-Universität Würzburg, in Vertretung des …, priority 2022, published 2026)
“Also recorded” adds a separate entry of the source.

Tests used:
spermatozoa [1] = test: Static oxidation-reduction potential (sORP) of human sperm samples by MiOXSYS; assay type: cell-based; details: for Change in oxidation-reduction potential (sORP, ratio treated/untreated): mean±SD; for Oxidation-reduction potential, samples 42_1 and 38_7 (in words): samples with drastically elevated untreated values, FIGS. 7D and 8D
Description: (§1) Between 1.46 mL and 5.7 mL human semen/spermatozoa were collected from healthy males of between 25 and 50 years of age in 100 mL sample vials on site. Samples were then divided into two equal fractions each for subsequent incubation with CO (wCO) and without CO (woCO). In order to estimate the spermatozoa concentration in the samples and to establish an initial baseline for each sample, a routine spermiogram was performed before samples were transferred to gas-tight 15 mL Falcon tubes. Samples were incubated at 25-35 °C for 90 minutes with and without an activated CORS system in a closed container. During this incubation period liquefaction took place naturally. The samples were then analyzed for total motility, progressive motility, static oxidation-reduction potential, and for DNA fragmentation. Total motility, progressive motility and concentration of the samples were assessed using a CEROS II (Hamilton Thorne, Beverly, MA) computer assisted sperm analysis (CASA) system. 6 μL of a sperm sample diluted 1:1 with Multipurpose Handling Medium-Complete (MHM-C, FujiFilm/IrvineScientific, Santa Ana, CA) was measured and the concentration and level of mobility (total and progressive motility) was assessed.
A Male Infertility Oxidative System (MiOXSYS, Englewood, CO) was used to determine static oxidation-reduction potential (sORP) levels. 30 μL of the sperm samples were transferred to the sample application port on a MiOXSYS sensor and analyzed for 2 minutes.
(§2) In this example, sperm samples were treated with either one, three, or six CORS capsules, each loaded with 5 mg Mo-CORM (corresponds to 0.44 mL CO) for 60 to 270 mins, or left untreated for the same amount of time.
(§3) Human sperm was collected from healthy volunteers in 100 ml specimen containers. Afterwards, the ejaculate was split into equal parts and filled into 15 mL gas tight falcon tubes, with one of the samples being exposed to one or more activated CORS. Then, both samples were analyzed for motility parameters via computer assisted sperm analysis (CASA), the static oxidation-reduction potential (sORP) via MiOXSYS and sperm DNA-fragmentation (SDF) via dispersion test with Halosperm G2 Kit after a predetermined time.
An oxidative male infertility measuring System (MiOXSYS, Englewood, CO) was used to determine static oxidation-reduction potential (SORP) levels following manufacturer's specifications. 30 μL of sample were transferred to the sample application port onto a MiOXSYS sensor and analyzed for 2 minutes. The results were expressed in milli Volt (mV) and normalized to the seminal sperm concentration (mV/106 sperm/mL).

spermatozoa [2] = test: Sperm DNA fragmentation (SDF) by dispersion test, Halosperm G2 Kit; assay type: cell-based, human; details: for DNA-fragmentation change (SDF, ratio treated/untreated): mean±SD
Description: as §1
To determine DNA fragmentation a count-based microscopy assay was performed. For this spermatozoa samples were diluted using MHM-C (Multipurpose Handling Medium-Complete, FujiFilm, IrvineScientific) to a maximum of 20×E6 spermatozoa per mL and analyzed using a Halo Sperm G2 Kit (Halotech, Madrid, Spain). Samples were mixed with the prepared agarose according to manufacturer instructions. 8 μL of the resulting mixture was then put on microscopy slides and cooled down for 5 minutes by removing the heat source. The prepared samples were further treated according to the manufacturer's instructions: denaturant for 7 minutes, lysis solution for 20 minutes, distilled water for 5 minutes, 70% ethanol for 2 minutes, 100% ethanol for 2 minutes, eosin staining solution for 7-10 minutes, and thiazine staining solution for 7-10 minutes. At least 300 spermatozoa were then analyzed using a bright field microscope.
as §2, §3
Sperm DNA fragmentation (SDF) was assessed via dispersion test using a Halosperm G2 Kit (From Halotech, Madrid, Spain) following manufacturer's specifications. In brief, the samples were diluted to a maximum of 20 mio/mL. The samples were, then, mixed with the prepared agarose. 8 μL of the mixture was transferred on slides and cooled down for 5 minutes. Different reagents were added and discarded after the set time: Denaturant agent was added for 7 minutes, lysis solution for 20 minutes, distilled water for 5 minutes, 70% ethanol for 2 minutes, 100% ethanol for 2 minutes, eosin staining solution for 7-10 minutes, and thiazine staining solution for 7-10 minutes. A minimum of 400 sperms were analyzed using an Olympus IX73 Inverted LED Fluorescence Microscope.

spermatozoa [3] = test: Computer assisted sperm analysis (CASA, CEROS II) of human spermatozoa treated with CO vs. without CO: total motility, progressive motility, average path velocity (VAP); assay type: cell-based; details: for Change in progressive motility (ratio treated/untreated) / Change of VAP (ratio treated/untreated) / Change in motility (ratio treated/untreated) / Change in velocity of the sperm cells (VAP, ratio treated/untreated): mean±SD
Description: as §1, §2, §3
Total motility, progressive motility, VAP, and concentration of the samples were tested using a CEROS II (Hamilton Thorne, Beverly, MA) computer assisted sperm analysis (CASA) system. 6 μL of a sperm sample diluted 1:1 with Multipurpose Handling Medium-Complete (MHM-C, Fuji Film/Irvine Scientific, Santa Ana, CA) was investigated with the CASA system, and the level of mobility was assessed.

[4] = 0.44 mL CO (5 mg Mo-CORM), 90 min
[5] = 1.32 mL CO (15 mg Mo-CORM), 60 min
[6] = 1.32 mL CO (15 mg Mo-CORM), 90 min
[7] = 1.32 mL CO (15 mg Mo-CORM), 180 min
[8] = 1.32 mL CO (15 mg Mo-CORM), 270 min
[9] = 2.64 mL CO (30 mg Mo-CORM), 90 min
[10] = Example 3, 60 min and 90 min, 0.44 mL and 1.32 mL CO
[11] = Example 3, up to 90 min, 0.44-2.64 mL CO

[C-]#[O+] [CO, carbon monoxide]
Change in oxidation-reduction potential (sORP, ratio treated/untreated) (spermatozoa [1]; [4]): 0.89±0.17 fold
Change in oxidation-reduction potential (sORP, ratio treated/untreated) (spermatozoa [1]; [5]): 0.57±0.35 fold
Change in oxidation-reduction potential (sORP, ratio treated/untreated) (spermatozoa [1]; [6]): 0.91±0.12 fold
Change in oxidation-reduction potential (sORP, ratio treated/untreated) (spermatozoa [1]; [7]): 1.02±0.32 fold
Change in oxidation-reduction potential (sORP, ratio treated/untreated) (spermatozoa [1]; [8]): 1.13±0.28 fold
Change in oxidation-reduction potential (sORP, ratio treated/untreated) (spermatozoa [1]; [9]): 0.59±0.24 fold
Correlation of CO effect on sORP with untreated sORP (in words) (spermatozoa [1]; 60 min and 90 min, 15 mg CORM, FIG. 9): particularly effective in subjects that suffer from high sperm oxidation-reduction potential
Relative oxidation-reduction potential wCO/woCO (in words) (spermatozoa [1]; Example 2, 15 mg Mo-CORM, 90 min, 25-35 °C, 6 subjects, FIG. 2): show a trend to be lower in the samples that were contacted with CO; also recorded: a reduction in oxidative stress/ROS
Oxidation-reduction potential vs untreated (in words) (spermatozoa [1]; [10]): reduced
Oxidation-reduction potential, samples 42_1 and 38_7 (in words) (spermatozoa [1]): strong reduction
Oxidation-reduction potential, samples 42_1 and 38_7 (in words) (spermatozoa [1]; listed as carbon monoxide): reduced oxidation-reduction potential
DNA-fragmentation change (SDF, ratio treated/untreated) (spermatozoa [2]; [4]): 0.83±0.09 fold
DNA-fragmentation change (SDF, ratio treated/untreated) (spermatozoa [2]; [5]): 0.77±0.07 fold
DNA-fragmentation change (SDF, ratio treated/untreated) (spermatozoa [2]; [6]): 0.67±0.24 fold
DNA-fragmentation change (SDF, ratio treated/untreated) (spermatozoa [2]; [7]): 0.90±0.11 fold
DNA-fragmentation change (SDF, ratio treated/untreated) (spermatozoa [2]; [8]): 0.90±0.19 fold
DNA-fragmentation change (SDF, ratio treated/untreated) (spermatozoa [2]; [9]): 1.31±0.55 fold
Correlation of CO effect on SDF with untreated SDF (in words) (spermatozoa [2]; 60 min and 90 min, 15 mg CORM, FIG. 10): particularly effective in subjects that suffer from high sperm oxidation-reduction potential and/or DNA-fragmentation
Relative DNA fragmentation wCO/woCO (in words) (spermatozoa [2]; Example 2, 15 mg Mo-CORM, 90 min, 25-35 °C, 3 subjects, FIG. 3): DNA fragmentation is reduced in samples that were contacted with CO; also recorded: a reduction in DNA fragmentation
DNA fragmentation, subjects 3 and 4 (in words) (spermatozoa [2]; Example 2, FIG. 3, treated vs untreated aliquots of same donor): less DNA fragmentation
Spermatozoan DNA-fragmentation (SDF) vs untreated (in words) (spermatozoa [2]; [10]): reduced
DNA fragmentation, samples 42_1 and 38_7 (in words) (spermatozoa [2]; samples with drastically elevated untreated values, FIGS. 7E and 8E): strong reduction
Change in progressive motility (ratio treated/untreated) (spermatozoa [3]; [4]): 0.97±0.12 fold
Change of VAP (ratio treated/untreated) (spermatozoa [3]; [4]): 1.01±0.08 fold
Change in motility (ratio treated/untreated) (spermatozoa [3]; 0.44 mL CO (5 mg Mo-CORM, one CORS), 90 min): 0.98±0.12 fold
Change in progressive motility (ratio treated/untreated) (spermatozoa [3]; [5]): 0.85±0.13 fold
Change in velocity of the sperm cells (VAP, ratio treated/untreated) (spermatozoa [3]; [5]): 0.94±0.09 fold
Change in motility (ratio treated/untreated) (spermatozoa [3]; [6]): 0.99±0.03 fold
Change in progressive motility (ratio treated/untreated) (spermatozoa [3]; [6]): 0.92±0.17 fold
Change in velocity of the sperm cells (VAP, ratio treated/untreated) (spermatozoa [3]; [6]): 0.96±0.04 fold
Change in motility (ratio treated/untreated) (spermatozoa [3]; [7]): 1.16±0.37 fold
Change in progressive motility (ratio treated/untreated) (spermatozoa [3]; [7]): 0.72±0.19 fold
Change in velocity of the sperm cells (VAP, ratio treated/untreated) (spermatozoa [3]; [7]): 0.79±0.13 fold
Change in motility (ratio treated/untreated) (spermatozoa [3]; [8]): 0.94±0.20 fold
Change in progressive motility (ratio treated/untreated) (spermatozoa [3]; [8]): 1.04±0.48 fold
Change in velocity of the sperm cells (VAP, ratio treated/untreated) (spermatozoa [3]; [8]): 0.97±0.08 fold
Change in motility (ratio treated/untreated) (spermatozoa [3]; 1.32 mL CO (15 mg Mo-CORM, three CORS), 60 min): 1.13±0.41 fold
Change in progressive motility (ratio treated/untreated) (spermatozoa [3]; [9]): 0.88±0.10 fold
Change of VAP (ratio treated/untreated) (spermatozoa [3]; [9]): 1.03±0.03 fold
Change in motility (ratio treated/untreated) (spermatozoa [3]; 2.64 mL CO (30 mg Mo-CORM, six CORS), 90 min): 0.90±0.12 fold
Relative total motility wCO/woCO (in words) (spermatozoa [3]; Example 2, 15 mg Mo-CORM, 90 min, 25-35 °C, 5 subjects, FIG. 4A): no differences between samples that were contacted with CO (wCO) and without CO (woCO)
Relative progressive motility wCO/woCO (in words) (spermatozoa [3]; Example 2, 15 mg Mo-CORM, 90 min, 25-35 °C, 5 subjects, FIG. 4B, exception subject 6): progressive motility is increased for wCO as compared to woCO; also recorded: an improvement of progressive motility
Effect on spermatozoan motility (in words) (spermatozoa [3]; Example 3, 60 min or 90 min, 0.44 mL or 1.32 mL CO): no negative effects on spermatozoan motility
Effect on progressive motility vs untreated (in words) (spermatozoa [3]; [11]): did not impair sperm motility, progressive motility
Effect on sperm motility vs untreated (in words) (spermatozoa [3]; [11]): did not impair sperm motility
Effect on velocity vs untreated (in words) (spermatozoa [3]; [11]): did not impair sperm motility, progressive motility, and velocity
